Assay results published in patent publication US7396837B2, “Antitumoral analogs of lamellarins” (Pharma Mar, S.A.U., priority 2002, dated 2008).

How the values were obtained:
[1] = test system: LNCaP; assay: SRB colorimetric cell growth inhibition assay, LNCaP; assay type: cell-based; details: LN-caP
Method in brief: (§1)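 Sulforhodamine B colorimetric readout measured cell growth and viability after continuous compound exposure of human cancer cell lines in 96-well plates. Triplicate wells gave mean ± SD, from which growth inhibition (GI), cytostatic total growth inhibition (TGI) and cytotoxic cell killing (LC) were calculated.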

[2] = test system: SK-BR-3; assay: SRB colorimetric cell growth inhibition assay, SK-BR-3; assay type: cell-based; details: SK-BR-3
Method in brief: as §1

[3] = test system: H-MEC-1; assay: SRB colorimetric cell growth inhibition assay, H-MEC-1; assay type: cell-based; details: H-MEC-1
Source text: (§2) A colorimetric type of assay, using sulforhodamine B (SRB) reaction has been adapted for a quantitative measurement of cell growth and viability (following the technique described by P. A. Skehan, et al., J. Natl. Cancer Inst. 1990, 82, 1107-1112).
(§3) This form of assay employs 96 well cell culture microplates of 9 mm diameter (T. Mosmann et al., J. of Immunological Methods 1983, 65, 55-63; G. T. Faircloth et al., J. of Tissue and Culture Methods 1988, 11, 201-205).
(§4) Most of the cell lines are obtained from American Type Culture Collection (ATCC) derived from different human cancer types.
(§5) The values for mean +/− SD of data from triplicate wells are calculated. Some parameters for cellular responses can be calculated: GI=growth inhibition, TGI=total growth inhibition (cytostatic effect) and LC=cell killing (cytotoxic effect).

[4] = target: T1, human topoisomerase I (Homo sapiens, UniProt P11387); assay: Topoisomerase I DNA relaxation assay (supercoiled plasmid DNA); assay type: biochemical; details: supercoiled plasmid DNA, each compound tested at 1 μM, agarose gel with ethidium bromide
T1 sequence (P11387 1-765): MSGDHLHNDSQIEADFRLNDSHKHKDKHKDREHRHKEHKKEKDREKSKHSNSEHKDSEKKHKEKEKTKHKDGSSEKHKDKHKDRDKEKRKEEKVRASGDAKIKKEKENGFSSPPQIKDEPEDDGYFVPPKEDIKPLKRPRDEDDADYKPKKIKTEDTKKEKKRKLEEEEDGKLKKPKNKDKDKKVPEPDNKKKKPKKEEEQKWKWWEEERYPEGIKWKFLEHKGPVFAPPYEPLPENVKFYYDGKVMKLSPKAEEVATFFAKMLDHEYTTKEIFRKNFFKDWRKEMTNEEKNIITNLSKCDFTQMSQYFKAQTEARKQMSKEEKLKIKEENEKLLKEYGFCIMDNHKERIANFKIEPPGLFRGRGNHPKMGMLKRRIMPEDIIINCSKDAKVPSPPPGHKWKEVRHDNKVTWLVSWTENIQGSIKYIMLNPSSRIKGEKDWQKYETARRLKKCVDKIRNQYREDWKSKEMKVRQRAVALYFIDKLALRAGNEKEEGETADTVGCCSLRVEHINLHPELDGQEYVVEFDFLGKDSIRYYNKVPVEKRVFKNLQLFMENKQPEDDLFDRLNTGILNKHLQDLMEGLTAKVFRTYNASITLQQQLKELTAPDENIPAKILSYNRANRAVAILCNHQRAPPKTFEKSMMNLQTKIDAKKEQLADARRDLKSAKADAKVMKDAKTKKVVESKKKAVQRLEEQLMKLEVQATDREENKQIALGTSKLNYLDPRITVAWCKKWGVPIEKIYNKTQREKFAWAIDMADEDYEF
Protocol: Two assays, based on DNA relaxation and DNA cleavage (Bailly, C. DNA relaxation and cleavage assays to study topoisomerase I inhibitors. Methods Enzymol. 2001, 340, 610-623) were used evaluate the effects of the lamellarin analogs on the catalytic activity of human topoisomerase I.
In the first assay, a supercoiled plasmid DNA was relaxed with topoisomerase I in the absence or presence of the test compounds, each tested at 1 μM. DNA relaxation products were then resolved by gel electrophoresis on agarose gels containing ethidium bromide to stain the DNA.

[5] = test system: DU-145; assay: SRB colorimetric cell growth inhibition assay, DU-145; assay type: cell-based; details: DU-145
Method in brief: as §1

[6] = test system: IGROV; assay: SRB colorimetric cell growth inhibition assay, IGROV; assay type: cell-based; details: IGROV
Method in brief: as §1

[7] = test system: SK-MEL-28; assay: SRB colorimetric cell growth inhibition assay, SK-MEL-28; assay type: cell-based; details: MEL-28
Method in brief: as §1

[8] = test system: LoVo; assay: SRB colorimetric cell growth inhibition assay, LoVo; assay type: cell-based; details: LOVO
Method in brief: as §1

[9] = test system: LoVo-Dox; assay: SRB colorimetric cell growth inhibition assay, LoVo-Dox (MDR); assay type: cell-based; details: LOVO-DOX
Method in brief: as §1

[10] = test system: A-549; assay: SRB colorimetric cell growth inhibition assay, A-549; assay type: cell-based; details: A-549
Method in brief: as §1

[11] = test system: SKOV-3; assay: SRB colorimetric cell growth inhibition assay, SKOV-3; assay type: cell-based; details: SKOV-3
Source text: as §2, §3, §4, §5

[12] = test system: PANC-1; assay: SRB colorimetric cell growth inhibition assay, PANC-1; assay type: cell-based; details: PANC-1
Method in brief: as §1

[13] = test system: IGROV-ET; assay: SRB colorimetric cell growth inhibition assay, IGROV-ET (ET-743 resistant); assay type: cell-based; details: IGROV-ET
Method in brief: as §1

[14] = test system: HT-29; assay: SRB colorimetric cell growth inhibition assay, HT-29; assay type: cell-based; details: HT-29
Method in brief: as §1

[15] = test system: K-562; assay: SRB colorimetric cell growth inhibition assay, K-562; assay type: cell-based; details: K-562
Method in brief: as §1

[16] = total growth inhibition (cytostatic effect)

For COc1cc(-c2c3n(c4c(=O)oc5cc(OS(C)(=O)=O)c(OC)cc5c24)CCc2cc(OS(C)(=O)=O)c(OC)cc2-3)ccc1OS(C)(=O)=O [Compound 22], the GI50 ([1]; GI=growth inhibition, read-out: GI50 LN-caP) was 0.564 µM, the CC50 ([1]; cell killing (cytotoxic effect), read-out: LC50 LN-caP) was 13.6 µM and the “TGI LN-caP” value [1, 16] was 1.82E−06 Molar. For the same molecule, the GI50 ([2]; GI=growth inhibition, read-out: GI50 SK-BR-3) was 0.257 µM, the CC50 ([2]; cell killing (cytotoxic effect), read-out: LC50 SK-BR-3) was 7.16 µM and the “TGI SK-BR-3” value [2, 16] was 1.81E−06 Molar. The GI50 ([3]; GI=growth inhibition, read-out: GI50 H-MEC-1) was 0.856 µM, the LC50 (concentration giving 50% net cell killing) ([3]; cell killing (cytotoxic effect)) was 10.4 µM and the “TGI H-MEC-1” value [3, 16] was 2.91E−06 Molar. For the same molecule, the “stimulation of DNA cleavage by topoisomerase I / inhibition of topoisomerase I (nicked DNA band) in DNA relaxation assay” value [4] was “inactive”, the GI50 ([5]; GI=growth inhibition, read-out: GI50 DU-145) was 0.743 µM and the CC50 ([5]; cell killing (cytotoxic effect), read-out: LC50 DU-145) was 13.6 µM. The “TGI DU-145” value [5, 16] was 8.10E−06 Molar, the GI50 ([6]; GI=growth inhibition, read-out: GI50 IGROV) was 0.787 µM and the CC50 ([6]; cell killing (cytotoxic effect), read-out: LC50 IGROV) was 13.6 µM. For the same molecule, the “TGI IGROV” value [6, 16] was 8.54E−06 Molar, the GI50 ([7]; GI=growth inhibition, read-out: GI50 MEL-28) was 0.332 µM and the CC50 ([7]; cell killing (cytotoxic effect), read-out: LC50 MEL-28) was 13.6 µM. The “TGI MEL-28” value [7, 16] was 3.56E−06 Molar, the GI50 ([8]; GI=growth inhibition, read-out: GI50 LOVO) was 0.484 µM and the CC50 ([8]; cell killing (cytotoxic effect), read-out: LC50 LOVO) was 13.6 µM. For the same molecule, the “TGI LOVO” value [8, 16] was 2.49E−06 Molar, the GI50 ([9]; GI=growth inhibition, read-out: GI50 LOVO-DOX) was 6.59 µM and the CC50 ([9]; cell killing (cytotoxic effect), read-out: LC50 LOVO-DOX) was 13.6 µM. The “TGI LOVO-DOX” value [9, 16] was 1.36E−05 Molar, the GI50 ([10]; GI=growth inhibition, read-out: GI50 A-549) was 0.89 µM and the CC50 ([10]; cell killing (cytotoxic effect), read-out: LC50 A-549) was 13.6 µM. The “TGI A-549” value [10, 16] was 7.73E−06 Molar, the GI50 ([11]; GI=growth inhibition, read-out: GI50 SKOV-3) was 0.201 µM and the LC50 (concentration causing 50% net cell killing) ([11]; cell killing (cytotoxic effect), read-out: LC50 SKOV-3) was 13.6 µM. For the same molecule, the “TGI SKOV-3” value [11, 16] was 2.22E−06 Molar, the GI50 ([12]; GI=growth inhibition, read-out: GI50 PANC-1) was 0.976 µM and the CC50 ([12]; cell killing (cytotoxic effect), read-out: LC50 PANC-1) was 13.6 µM. For the same molecule, the “TGI PANC-1” value [12, 16] was 1.36E−05 Molar, the GI50 ([13]; GI=growth inhibition, read-out: GI50 IGROV-ET) was 2.89 µM and the CC50 ([13]; cell killing (cytotoxic effect), read-out: LC50 IGROV-ET) was 13.6 µM. For the same molecule, the “TGI IGROV-ET” value [13, 16] was 1.36E−05 Molar, the GI50 ([14]; GI=growth inhibition, read-out: GI50 HT-29) was 0.879 µM and the CC50 ([14]; cell killing (cytotoxic effect), read-out: LC50 HT-29) was 13.6 µM. The “TGI HT-29” value [14, 16] was 1.36E−05 Molar, the GI50 ([15]; GI=growth inhibition, read-out: GI50 K-562) was 0.67 µM and the CC50 ([15]; cell killing (cytotoxic effect), read-out: LC50 K-562) was 13.6 µM. For the same molecule, the “TGI K-562” value [15, 16] was 4.77E−06 Molar.
